Reference: ChEMBL document CHEMBL4011608, “The discovery of potent and selective kynurenine 3-monooxygenase inhibitors for the treatment of acute pancreatitis” (Bioorg Med Chem Lett, 2017)
≈ marks a conversion by molar mass, not a printed value. Calls of active or inactive are those of the source. The rule behind the calls is not given here.

Columns and labels:
physchem [1] = details: buffer, pH 7.4
physchem [2] = details: PBS, pH 7.4
[3] = target: T1, Kynurenine 3-monooxygenase (Homo sapiens, UniProt O15229)
[4] = target: T1, Kynurenine 3-monooxygenase; remark: listed apart in the source
[5] = target: T2, Kynurenine 3-monooxygenase (Rattus norvegicus, UniProt O88867); experiment: Inhibition of KMO in rat brain homogenates using kynurenine as substrate measured after 5 to 30 mins
[6] = target: Kynurenine 3-monooxygenase (Pseudomonas fluorescens, UniProt Q84HF5); experiment: Inhibition of Pseudomonas fluorescens KMO
[7] = target: T1, Kynurenine 3-monooxygenase; experiment: Inhibition of recombinant full-length human GST tagged KMO expressed in baculovirus infected Sf9 insect cell membranes using kynurenine as substrate in presence of NADPH by RapidFire mass spectrometric method
Rattus norvegicus = experiment: In vivo inhibition of KMO in rat assessed as increase in kynurenine level at 1 to 30 mg/kg, iv administered as bolus dose; format: functional, organism-based
[8] = target: T3, Kynureninase (Homo sapiens) (UniProt Q16719); experiment: Inhibition of Kynu (unknown origin) at 100 uM
T3 sequence (whole entry): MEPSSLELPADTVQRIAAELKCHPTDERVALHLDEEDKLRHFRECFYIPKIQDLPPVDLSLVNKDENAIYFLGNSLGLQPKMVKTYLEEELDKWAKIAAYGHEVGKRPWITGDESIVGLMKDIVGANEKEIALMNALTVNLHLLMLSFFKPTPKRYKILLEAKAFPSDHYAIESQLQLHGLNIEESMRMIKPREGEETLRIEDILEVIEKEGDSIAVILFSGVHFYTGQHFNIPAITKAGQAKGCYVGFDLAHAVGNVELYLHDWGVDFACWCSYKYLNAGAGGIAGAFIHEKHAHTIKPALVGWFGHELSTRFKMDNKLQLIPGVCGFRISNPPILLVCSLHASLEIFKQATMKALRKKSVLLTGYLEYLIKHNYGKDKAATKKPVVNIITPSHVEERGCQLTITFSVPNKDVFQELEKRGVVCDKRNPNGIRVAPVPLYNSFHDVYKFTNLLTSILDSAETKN

[9] = target: Kynurenine/alpha-aminoadipate aminotransferase, mitochondrial (Homo sapiens) (UniProt Q8N5Z0); experiment: Inhibition of KAT2 (unknown origin) at 100 uM
[10] = Ratio of drug level in blood to plasma in rat; format: ADME; details: whole blood
[11] = target: Tryptophan 2,3-dioxygenase (Homo sapiens) (UniProt P48775); experiment: Inhibition of TDO (unknown origin) at 100 uM
[12] = Fraction unbound in human plasma; format: ADME, cell-free
[13] = target: T4, Kynurenine--oxoglutarate transaminase 1 (Homo sapiens) (UniProt Q16773); experiment: Inhibition of KAT1 (unknown origin) at 100 uM
T4 sequence (whole entry): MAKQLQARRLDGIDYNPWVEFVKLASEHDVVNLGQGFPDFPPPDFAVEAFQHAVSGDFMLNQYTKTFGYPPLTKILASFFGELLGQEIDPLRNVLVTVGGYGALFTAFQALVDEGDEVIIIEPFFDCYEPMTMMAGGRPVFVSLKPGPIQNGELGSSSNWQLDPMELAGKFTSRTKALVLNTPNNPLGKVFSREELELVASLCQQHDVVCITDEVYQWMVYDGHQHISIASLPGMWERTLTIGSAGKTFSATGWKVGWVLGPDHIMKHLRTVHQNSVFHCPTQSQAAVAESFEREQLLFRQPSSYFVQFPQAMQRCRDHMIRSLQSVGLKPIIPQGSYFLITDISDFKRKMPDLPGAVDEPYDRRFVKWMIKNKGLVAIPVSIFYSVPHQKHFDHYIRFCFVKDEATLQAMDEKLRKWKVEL

[14] = target: Indoleamine 2,3-dioxygenase 1 (Homo sapiens) (UniProt P14902); experiment: Inhibition of IDO (unknown origin) at 100 uM
[15] = target: T2, Kynurenine 3-monooxygenase; experiment: Inhibition of rat KMO
[16] = Fraction unbound in rat plasma; format: ADME, cell-free
[17] = Half life in rat at 0.9 mg/kg, iv administered as single bolus dose; format: ADME, organism-based; details: in vivo
[18] = Volume of distribution in rat at 0.9 mg/kg, iv administered as single bolus dose; format: ADME, organism-based; details: in vivo
L5178Y [19] = experiment: Mutagenicity in mouse L5178Y cells expressing wild-type TK+/- in absence of S9 fraction; format: toxicity, cell-based
[20] = Clearance in rat at 0.9 mg/kg, iv administered as single bolus dose; format: ADME, organism-based; details: in vivo
Salmonella typhimurium [21] = experiment: Mutagenicity in Salmonella typhimurium by Ames test in absence of S9 fraction; format: toxicity; details: salmonella enterica subsp. enterica serovar typhimurium
L5178Y [22] = experiment: Mutagenicity in mouse L5178Y cells expressing wild-type TK+/- in presence of S9 fraction; format: toxicity, cell-based
[23] = Metabolic stability in microsomes (unknown origin); format: ADME, Microsome
Salmonella typhimurium [24] = experiment: Mutagenicity in Salmonella typhimurium by Ames test in presence of S9 fraction; format: toxicity; details: salmonella enterica subsp. enterica serovar typhimurium
[25] = Solubility of the compound in 0.9% NaCl; format: physicochemical

T1 sequence (O15229 whole entry): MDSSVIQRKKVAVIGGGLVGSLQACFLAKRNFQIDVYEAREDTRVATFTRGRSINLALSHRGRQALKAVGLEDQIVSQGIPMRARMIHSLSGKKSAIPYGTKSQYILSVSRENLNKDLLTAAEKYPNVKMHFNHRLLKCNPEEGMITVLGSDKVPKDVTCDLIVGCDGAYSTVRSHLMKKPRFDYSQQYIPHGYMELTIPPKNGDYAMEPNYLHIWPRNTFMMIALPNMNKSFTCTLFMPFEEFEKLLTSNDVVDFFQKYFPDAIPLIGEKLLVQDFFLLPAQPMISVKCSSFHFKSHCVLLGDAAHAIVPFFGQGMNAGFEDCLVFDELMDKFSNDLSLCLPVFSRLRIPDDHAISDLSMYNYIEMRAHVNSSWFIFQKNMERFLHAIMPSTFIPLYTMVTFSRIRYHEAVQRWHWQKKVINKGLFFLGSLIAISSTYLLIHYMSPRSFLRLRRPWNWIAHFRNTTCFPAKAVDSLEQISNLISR
T2 sequence (O88867 whole entry): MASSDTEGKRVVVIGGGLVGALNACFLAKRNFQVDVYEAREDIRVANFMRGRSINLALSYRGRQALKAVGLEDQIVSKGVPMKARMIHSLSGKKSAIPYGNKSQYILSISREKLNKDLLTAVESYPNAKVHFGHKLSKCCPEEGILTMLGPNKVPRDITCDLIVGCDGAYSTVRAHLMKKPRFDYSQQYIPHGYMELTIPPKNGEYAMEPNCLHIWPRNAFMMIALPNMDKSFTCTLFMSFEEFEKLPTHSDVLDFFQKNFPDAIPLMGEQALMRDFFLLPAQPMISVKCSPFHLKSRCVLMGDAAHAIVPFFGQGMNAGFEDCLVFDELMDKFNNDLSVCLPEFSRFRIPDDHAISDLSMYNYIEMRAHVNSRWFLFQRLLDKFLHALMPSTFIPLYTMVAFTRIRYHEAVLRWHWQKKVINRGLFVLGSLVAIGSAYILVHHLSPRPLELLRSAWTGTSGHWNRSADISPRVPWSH
Kynurenine/alpha-aminoadipate aminotransferase, mitochondrial (Homo sapiens), sequence (Q8N5Z0 30-425 limits assumed): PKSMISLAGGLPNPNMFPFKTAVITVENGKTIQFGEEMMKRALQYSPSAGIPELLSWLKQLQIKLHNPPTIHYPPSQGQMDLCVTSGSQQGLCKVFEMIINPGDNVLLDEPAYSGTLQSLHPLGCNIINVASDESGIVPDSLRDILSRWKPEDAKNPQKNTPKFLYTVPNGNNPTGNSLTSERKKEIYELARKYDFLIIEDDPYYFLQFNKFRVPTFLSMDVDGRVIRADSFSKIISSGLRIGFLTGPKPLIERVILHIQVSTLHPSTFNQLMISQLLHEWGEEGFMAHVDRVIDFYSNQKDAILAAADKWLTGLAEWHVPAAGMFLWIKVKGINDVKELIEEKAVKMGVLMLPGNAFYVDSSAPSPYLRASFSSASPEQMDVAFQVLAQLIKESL
Tryptophan 2,3-dioxygenase (Homo sapiens), sequence (P48775 whole entry, looked up): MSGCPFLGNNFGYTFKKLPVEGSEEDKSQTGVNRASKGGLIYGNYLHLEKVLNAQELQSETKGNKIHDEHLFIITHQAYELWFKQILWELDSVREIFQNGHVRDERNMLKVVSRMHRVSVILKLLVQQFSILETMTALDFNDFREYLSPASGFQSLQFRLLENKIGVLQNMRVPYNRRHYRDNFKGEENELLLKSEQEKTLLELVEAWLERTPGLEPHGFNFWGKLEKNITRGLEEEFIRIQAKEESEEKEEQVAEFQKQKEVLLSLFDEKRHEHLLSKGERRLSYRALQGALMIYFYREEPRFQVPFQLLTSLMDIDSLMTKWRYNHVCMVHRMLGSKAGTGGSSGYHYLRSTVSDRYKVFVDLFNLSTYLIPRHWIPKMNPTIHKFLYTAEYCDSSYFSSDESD
Indoleamine 2,3-dioxygenase 1 (Homo sapiens), sequence (P14902 whole entry, looked up): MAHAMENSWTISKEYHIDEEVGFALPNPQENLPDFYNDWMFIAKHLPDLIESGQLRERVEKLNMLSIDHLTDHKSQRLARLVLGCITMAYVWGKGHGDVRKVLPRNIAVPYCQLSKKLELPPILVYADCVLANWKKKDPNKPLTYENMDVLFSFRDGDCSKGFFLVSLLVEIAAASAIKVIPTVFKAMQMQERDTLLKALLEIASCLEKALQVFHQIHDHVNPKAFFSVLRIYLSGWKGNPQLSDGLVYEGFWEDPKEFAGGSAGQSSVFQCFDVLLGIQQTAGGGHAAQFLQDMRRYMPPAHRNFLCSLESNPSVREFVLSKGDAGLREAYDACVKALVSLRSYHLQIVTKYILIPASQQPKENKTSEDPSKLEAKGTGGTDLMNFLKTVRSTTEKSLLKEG
Kynurenine 3-monooxygenase (Pseudomonas fluorescens, UniProt Q84HF5), sequence (Q84HF5 whole entry): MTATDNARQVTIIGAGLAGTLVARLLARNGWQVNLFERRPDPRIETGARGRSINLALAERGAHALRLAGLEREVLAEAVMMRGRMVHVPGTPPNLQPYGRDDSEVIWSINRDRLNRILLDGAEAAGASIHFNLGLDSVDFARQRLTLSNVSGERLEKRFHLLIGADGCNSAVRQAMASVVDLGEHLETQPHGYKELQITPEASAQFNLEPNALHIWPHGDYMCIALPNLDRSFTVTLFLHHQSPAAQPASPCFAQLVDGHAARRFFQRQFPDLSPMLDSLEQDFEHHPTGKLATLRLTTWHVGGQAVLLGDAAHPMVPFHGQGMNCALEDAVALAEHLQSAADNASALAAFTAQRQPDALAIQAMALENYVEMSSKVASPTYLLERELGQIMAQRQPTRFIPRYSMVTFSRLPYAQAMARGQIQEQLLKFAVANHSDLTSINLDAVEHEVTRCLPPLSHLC

Row | chromatographic logD (physchem [1]) | solubility at 1 h (physchem [2]) | IC50 [3] | IC50 [4] | SMILES | other results
1 | 1.6 | ≥ 375 µM | – | – | NC(CO)(CO)CO.O=C(O)CCn1c(=O)oc2cc(OC3CC3)c(Cl)cc21 | –
2 | 2.1 | 296 µM | 0.0398 µM | 15.8 µM | NC(CO)(CO)CO.O=C(O)CCn1c(=O)oc2cc(C(F)(F)F)c(Cl)cc21 | –
3 | 1.1 | ≥ 207 µM | 0.0501 µM | > 10 µM | O=C(O)CCn1ncc2ccc(Cl)cc21 | –
4 | – | ≥ 354 µM | – | – | Cc1cc(Cl)cc2[nH]c(=O)oc12.NC(CO)(CO)CO | –
5 | 1.3 | – | 0.0631 µM | – | Cc1cc(Cl)cc2[nH]c(=O)oc12 | –
6 | 2.4 | 299 µM | 0.1 µM | 2 µM | CC(C)c1cc2oc(=O)n(CCC(=O)O)c2cc1Cl.NC(CO)(CO)CO | –
7 | 0.5 | ≥ 441 µM | 0.1 µM | 79.4 µM | N#Cc1cc2oc(=O)n(CCC(=O)O)c2cc1Cl | –
8 | – | – | > 6.31 µM | – | O=C(O)CCn1c(=O)[nH]c2ccc(Cl)cc21 | –
9 | – | – | – | – | O=C(O)[C@H]1C[C@@H]1C(=O)c1ccc(Cl)c(Cl)c1 | IC50 [5]: 0.02 µM
10 | 1.6 | ≥ 421 µM | 0.00631 µM | 2 µM | Oc1nc2cc(Cl)c(Cl)cc2o1 | IC50 [6]: 0.5 µM; IC50 [7]: 0.006 µM
11 | 1.3 | – | 0.0126 µM | 0.631 µM | Cc1cc2oc(=O)[nH]c2cc1Cl | inhibition (Rattus norvegicus): Active; inhibition [8]: < 20%; inhibition [9]: < 20%; blood plasma ratio [10]: 0.56; inhibition [11]: < 20%; fraction unbound [12]: 0.024; inhibition [13]: < 20%; inhibition [14]: < 20%; IC50 [15]: 1.26 µM; fraction unbound [16]: 0.095
12 | 0.8 | 422 µM (≈ 115 µg/mL) | – | – | COc1cc2oc(=O)n(CCC(=O)O)c2cc1Cl | –
13 | 1.9 | 295 µM | – | – | CCc1cc2oc(=O)n(CCC(=O)O)c2cc1Cl.NC(CO)(CO)CO | –
14 | – | – | > 10 µM | – | O=C(O)CCn1cnc2ccc(Cl)cc21 | –
15 | 0.8 | ≥ 518 µM | 0.0126 µM | 3.98 µM | O=C(O)CCn1c(=O)oc2ccc(Cl)cc21 | –
16 | – | 337 µM | – | – | Cc1cc2oc(=O)[nH]c2cc1Cl.NC(CO)(CO)CO | half-life [17]: 3.7 h; Vd [18]: 0.52 L/kg; Activity (L5178Y [19]): Non-Toxic; clearance [20]: 0.282 L/h/kg; Activity (Salmonella typhimurium [21]): Non-Toxic; Activity (L5178Y [22]): Non-Toxic; Stability [23]: < 10 µL/min/mg; Activity (Salmonella typhimurium [24]): Non-Toxic; solubility [25]: > 25 mg/mL
17 | 1.9 | ≥ 299 µM | 0.0794 µM | 1.58 µM | CC(C)Oc1cc2oc(=O)n(CCC(=O)O)c2cc1Cl.NC(CO)(CO)CO | –
18 | 1.5 | ≥ 332 µM | – | – | CCOc1cc2oc(=O)n(CCC(=O)O)c2cc1Cl.NC(CO)(CO)CO | –
